From patent US20040132755A1, “Isoxazoles and uses thereof” (priority 2002, published 2004)

System: LPS-induced tumor necrosis factor-α (TNF-α) production in mixed glial cells
Experiment: In vitro CNS inflammation assay
Assay type: cell-based
Conditions: Rattus norvegicus, Glial cell, 6 h, LPS 50 ng/ml, TNF-α ELISA
Method: This protocol describes the procedure used to induce experimental inflammation by lipopolysacchride (LPS) in cultured CNS mixed glial cells. The anti-inflammatory effect of test compounds was evaluated against LPS-induced tumor necrosis factor-α (TNF-α) production in mixed glial cells.
The following steps were performed the day of the assay:
The mixed glial cells (7 days from initial culture) were replenished with mixed glial culture media consist of 50:50:10:1 combination of DMEM (high glucose: Invitrogen Corp), F-12 (Invitrogen Corp), 100% fetal bovine serum and 100×N-2 supplement (Invitrogen Corp). These mixed glial cells were prepared according to Park L C, Calingasan N Y, Uchida K, Zhang H, Gibson G E. (2000) “Metabolic impairment elicits brain cell type-selective changes in oxidative stress and cell death in culture.” J Neurochem 74(1):114-124 with some modification. Briefly, rat […] forebrains (1-2 day old) were isolated, triturated and plated on 96-well plates (20,000 cells per well) in mixed glial media in 5% CO2 incubator at 37° C. […]
The quantitative determination of TNF-αpresent in cell culture medium produced by mixed glial cells was performed using a solid phase sandwich enzyme linked immno-sorbent assay (ELISA) method based on the protocol and reagents provided by Biosource rat TNF-α ELISA kit (Biosource International).

SMILES: OC1CCN(Cc2onc(-c3ccc(F)cc3)c2-c2ccnc(NC3CCCCC3)n2)CC1 [I-1]
- IC50: ≤ 1000 nM
